For one assay, the target named is T1, Substance-P receptor (Homo sapiens, UniProt P25103). Description: Binding affinity was measured against the Tachykinin receptor 1 in human IM-9 cells using [125I]Bolton-Hunter SP. The assay is classed as cell-based.
T1 sequence (P25103 whole entry): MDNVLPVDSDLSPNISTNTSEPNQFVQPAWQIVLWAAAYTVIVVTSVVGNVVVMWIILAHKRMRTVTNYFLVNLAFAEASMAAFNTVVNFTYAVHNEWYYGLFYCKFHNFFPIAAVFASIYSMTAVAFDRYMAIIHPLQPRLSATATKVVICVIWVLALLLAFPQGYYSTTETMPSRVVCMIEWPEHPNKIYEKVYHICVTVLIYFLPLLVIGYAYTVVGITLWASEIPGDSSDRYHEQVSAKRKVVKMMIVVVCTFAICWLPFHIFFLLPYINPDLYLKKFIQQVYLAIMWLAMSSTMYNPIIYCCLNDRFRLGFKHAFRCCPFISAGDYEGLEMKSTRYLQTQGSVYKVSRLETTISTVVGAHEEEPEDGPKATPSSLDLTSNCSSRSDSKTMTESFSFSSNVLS
One may read the IC50 as the concentration that gives 50% inhibition. Read a high IC50 as weaker potency in that assay. Regarding `c1ccc(CN[C@H]2C3C4CCCC3CN(C4)[C@H]2C(c2ccccc2)c2ccccc2)cc1`, the concentration for half-maximal inhibition (IC50) is 229 nM.

Compound `COc1ccccc1CN1CCN2CCC[C@H]1[C@@H]2c1ccccc1` gave an IC50 of 0.363 nM.

Regarding `COc1ccccc1CN[C@H]1C2CC3CCC(C2)N3[C@H]1C(c1ccccc1)c1ccccc1`, the IC50 is 0.912 nM.

Compound `c1ccc(CN[C@H]2C3CC4CCCC(C3)N4[C@H]2C(c2ccccc2)c2ccccc2)cc1` gave an IC50 of 170 nM.

For `c1ccc(CN[C@H]2C3CC4CCC(C3)N4[C@H]2C(c2ccccc2)c2ccccc2)cc1`, the IC50 was 67.6 nM.

For the compound `COc1ccccc1[C@@H]1CC[C@@]2(CCCN[C@H]2c2ccccc2)N1`, the IC50 was 10000 nM. Against the preceding compound, the IC50 is about 150-fold higher.

Turning to `COc1ccccc1CN[C@H]1C2CC3CCCC2CN3[C@H]1C(c1ccccc1)c1ccccc1` (some centres undefined), the IC50 was 1.91 nM.

The compound `COc1ccccc1[C@@H]1CC[C@@]2(CCCN[C@H]2c2ccccc2)NC1` showed an IC50 of 2 nM.

Consider `COc1ccccc1CN1CN2CCC[C@H]1[C@@H]2c1ccccc1`, for which the IC50 was 0.617 nM.

In another assay the target is T1, Substance-P receptor. Description: Binding affinity was measured against the Tachykinin receptor 1 in human IM-9 cells using [3H]SP as ligand. The assay is classed as cell-based.
Compound `CN(Cc1ccccc1)C(=O)[C@H](Cc1ccc2ccccc2c1)NC(=O)C1(NC(=O)c2c[nH]c3ccccc23)CCCCC1` showed an IC50 of 1.26 nM.

For `COc1ccccc1CN[C@H]1[C@@H]2CCC[C@@H]2N[C@H]1c1ccccc1`, the IC50 was 2.4 nM.

As to `CN(C(=O)Cc1ccccc1)[C@H](Cc1ccc2ccccc2c1)NC(=O)C1(NC(=O)c2c[nH]c3ccccc23)CCCCC1`, the IC50 was 20 nM.

For the compound `CN(Cc1ccccc1)C(=O)[C@H](Cc1ccccc1)NC(=O)[C@@H]1CCCC[C@@H]1NC(=O)c1c[nH]c2ccccc12`, the IC50 was 126 nM.

The compound `O=C(Cc1ccccc1)N[C@H](Cc1ccc2ccccc2c1)NC(=O)[C@@H]1CCCC[C@@H]1NC(=O)c1c[nH]c2ccccc12` gave an IC50 of 316 nM.

Take `CN(Cc1ccccc1)C[C@H](Cc1ccc2ccccc2c1)NC(=O)[C@@H]1CCCC[C@@H]1NC(=O)c1c[nH]c2ccccc12`: the IC50 is 1260 nM.

For `CN(Cc1ccccc1)C(=O)[C@H](Cc1ccc2ccccc2c1)NC(=O)[C@@H]1CCCC[C@@H]1NC(=O)c1c[nH]c2ccccc12`, the IC50 was 12.6 nM. Compared with the last compound, the IC50 is about 100-fold lower.

For the next assay, the target named is T1, Substance-P receptor. Description: Binding affinity was measured against the Tachykinin receptor 1 in CHO-expressed hNK1 using [125I]SP.
With `N[C@H](COCc1cccc(Cl)c1)C(c1ccccc1)c1ccccc1`, the IC50 was 75.9 nM.

Turning to `FC(F)(F)c1cc(COCC2(c3ccccc3)CCCNC2)cc(C(F)(F)F)c1` (centres undefined), the IC50 is 20 nM.

As to `CC(=O)N[C@@H](Cc1csc2ccccc12)C(=O)OCc1cc(C(F)(F)F)cc(C(F)(F)F)c1` [L-709400], the IC50 was 15.1 nM.

The compound `COc1ccccc1CN[C@H]1C2CCN(CC2)[C@H]1Cc1ccccc1` showed an IC50 of 234 nM. This IC50 lies about 15-fold higher than the previous one.

With `Cc1cc(C)cc(COC[C@@H](Nc2ccccc2)C(c2ccccc2)c2ccccc2)c1`, the IC50 is 81.3 nM.

`FC(F)(F)c1cc(CO[C@H]2CCCN(Cc3nnc[nH]3)[C@H]2c2ccccc2)cc(C(F)(F)F)c1` had an IC50 of 0.2 nM.

Regarding `FC(F)(F)c1cc(CO[C@H]2CCCN(Cc3ccco3)[C@H]2c2ccccc2)cc(C(F)(F)F)c1`, the IC50 was 39.8 nM.

`CC(=O)N[C@@H](Cc1c[nH]c2ccccc12)C(=O)OCc1cc(C)cc(C)c1` [L-708568] showed an IC50 of 52.5 nM.

With `O=C1O[C@@H](Cc2c[nH]c3ccccc23)C(=O)N1Cc1cccc(C(F)(F)F)c1`, the IC50 is 2690 nM.

The compound `FC(F)(F)c1cc(CO[C@H]2CCCN(Cc3nnco3)[C@H]2c2ccccc2)cc(C(F)(F)F)c1` showed an IC50 of 1 nM.

Take `FC(F)(F)c1cc(CN[C@H]2C3CCN(CC3)[C@H]2C(c2ccccc2)c2ccccc2)cc(C(F)(F)F)c1`: the half-inhibitory concentration (IC50) was 2 nM.

In the case of `FC(F)(F)c1cc(CO[C@H]2CCCN(Cc3ncc[nH]3)[C@H]2c2ccccc2)cc(C(F)(F)F)c1`, the IC50 is 0.501 nM.

`FC(F)(F)c1cc(COCC2(c3ccccc3)CCCCN2)cc(C(F)(F)F)c1` (centres undefined): the IC50 was 1 nM.

Turning to `CN(Cc1ccccc1)C(=O)CN1CCC[C@H](OCc2cc(C(F)(F)F)cc(C(F)(F)F)c2)[C@@H]1c1ccccc1`, the IC50 is 0.398 nM.

In turn, `FC(F)(F)c1cc(CO[C@H]2CCCN(Cc3nnn[nH]3)[C@H]2c2ccccc2)cc(C(F)(F)F)c1` gave an IC50 of 39.8 nM.

The compound `O=c1[nH]nc(CN2CCC[C@H](OCc3cc(C(F)(F)F)cc(C(F)(F)F)c3)[C@@H]2c2ccccc2)[nH]1` showed an IC50 of 0.1 nM.

`N[C@H](COCc1ccccc1)C(c1ccccc1)c1ccccc1` gave an IC50 of 363 nM.

On to `c1ccc(CO[C@H]2C3CCN(CC3)[C@H]2C(c2ccccc2)c2ccccc2)cc1`, for which the IC50 is 75.9 nM.

Consider `FC(F)(F)c1cc(CO[C@H]2CCCN(Cc3cnc[nH]3)[C@H]2c2ccccc2)cc(C(F)(F)F)c1`, for which the half-inhibitory concentration (IC50) is 1 nM. This IC50 lies about 76-fold lower than the previous one.

Compound `c1ccc(CN[C@H]2C3CCN(CC3)[C@H]2C(c2ccccc2)c2ccccc2)cc1` gave an IC50 of 28.8 nM.

As to `Cc1cc(C)cc(CO[C@H]2C3CCN(CC3)[C@H]2C(c2ccccc2)c2ccccc2)c1` [L-706125], the IC50 was 295 nM.

The compound `O=C1O[C@@H](Cc2c[nH]c3ccccc23)C(=O)N1Cc1cc(C(F)(F)F)cc(C(F)(F)F)c1` gave a 50% inhibitory concentration (IC50) of 25.7 nM.

The compound `FC(F)(F)c1cc(CO[C@H]2C3CCN(CC3)[C@H]2C(c2ccccc2)c2ccccc2)cc(C(F)(F)F)c1` [L-709210] had an IC50 of 195 nM.

The record behind these values is ChEMBL document CHEMBL1131095, “Derivation of a three-dimensional pharmacophore model of substance P antagonists bound to the neurokinin-1 receptor” (J Med Chem, 1998).
